Reference: patent US20250099382A1, “Colloidal suspension of nutraceutical ingredients to treat traumatic brain injury” (priority 2023, published 2025)

What was measured:
rats = details: up to 5 grams per kilogram for 60 days; cited from earlier work
mice [1] = details: up to 5 grams per kilogram for 60 days; cited from earlier work
mice [2] = details: PubChem.gov, cited from earlier work
[3] = test system: weight drop contusion TBI; details: 100 mg/kg to mice after weight drop contusion TBI; cited from earlier work
platelets = details: cited from earlier work
mice [4] = assay: LD50 reported by PubChem.gov, human conversion with the mouse factor 12.3; details: LD50 divided by 12.3, times 65 kilograms
Excerpt: Much of the research for toxicity and efficacy studies is preclinical, which necessitates a conversion of preclinical data to human equivalent data for interpretation of implications of preclinical data to clinical studies. […] For conversion of preclinical data from mice to human, divide the mg/kg dosage by 12.3. One would then multiply the result by an approximated average weight in kilograms for human clinical subjects to establish a preliminary clinical dosage. For example, if the preclinical dosage indicating drug efficacy were 100 mg/kg, this dosage would be divided by 12.3 to get 8.13 mg/kg, which would then be multiplied by an average weight in kilograms designated for the clinical study. For an average clinical subject weight of 65 kilograms, the original 100 mg/kg preclinical dosage would translate to 528 mg, which would be the preliminary dosage for clinical studies. For conversion of preclinical data from rat to human, the animal dosage would be divided by 6.2, then multiplied by the average subject weight in kilograms for the clinical study.
To convert this preclinical data to human equivalent data, 2.2 grams divided by 12.3 is 179 mg, times 65 kilograms for a human subject weighing 65 kg is approximately 11.6 grams.
For human equivalency dosage, 100 mg/kg divided by 12.3 is 8.13 mg/kg, times 65 for a 65-kilogram clinical subject is 528 mg/kg. […]

rat [5] = details: PubChem.gov, cited from earlier work; for LD50: rat, route not stated
rat [6] = assay: LD50 reported by PubChem.gov, rat; details: for human equivalent of LD50: LD50 divided by 6.2 (rat), times 65 kilograms
TBI = details: 100 mg/kg, rats; cited from earlier work
human lymphocytes = human lymphocytes in culture; cited from earlier work

Molecule: Fulvic acid
- toxicity or genotoxicity (rats): No toxicity or genotoxicity was found
- toxicity or genotoxicity (mice [1]): No toxicity or genotoxicity was found

Molecule: COc1cc(/C=C/C(=O)CC(=O)/C=C/c2ccc(O)c(OC)c2)ccc1O [curcumin, Curcumin]
- LD50 (mice [2]; route not stated): greater than 2 grams per kilogram of animal weight
- recovery after TBI [3]: Major improvements in recovery were noted
- production of thromboxane A2 by platelets (platelets): reduced the production of thromboxane A2 by platelets
- human equivalent of LD50 (mice [4]): approximately 10.6 grams

Molecule: NCCS(=O)(=O)O [taurine]
- LD50 (rat [5]): greater than 7 grams per kilogram
- human equivalent of LD50 (rat [6]): 74 grams

Molecule: CC(=O)O[C@H](CC(=O)[O-])C[N+](C)(C)C [acetyl L-carnitine, Acetyl L-carnitine]
- LD50, intravenous (rat [5]; intravenous, rat species): 1,265 mg/kg
- human equivalent dosage of intravenous LD50 (rat [6]; LD50 divided by 6.2, times 65 for a 65-kilogram human patient): 13.2 grams

Molecule: Oc1ccc(C=Cc2cc(O)cc(O)c2)cc1 [resveratrol, 3,5,4′-Trihydroxystilbene]
- secondary injury from TBI (TBI): significantly attenuated secondary injury from TBI
- genetic damage induced by permethrin (human lymphocytes): diminishes genetic damage induced by permethrin

Molecule: Nc1ncnc2c1ncn2[C@@H]1O[C@H](COP(=O)([O-])OP(=O)([O-])OP(=O)([O-])[O-])[C@@H](O)[C@H]1O.[Mg+2].[Mg+2] [ATP, Adenosine triphosphate magnesium]
- LD50 (rat [5]): greater than 2 grams per kilogram
- human equivalent of LD50 (rat [6]): > 21 grams

Molecule: N[C@@H](CCC(=O)N[C@@H](CS)C(=O)NCC(=O)O)C(=O)O [GSH, Glutathione]
- LD50, intravenous (mice [2]; intravenous): 2.2 grams per kilogram of animal weight
- human equivalent of intravenous LD50 (mice [4]): approximately 11.6 grams
